Experimental data taken from publication PMC2856764 (Human immunology, 2010).
Ends that are not written are not given here.

Columns and labels:
Test in all cases: biochemical
Type in all cases: binding
HLA-B*5401 = HLA-B*5401 (Homo sapiens, UniProt P01889, A329T/C349S/D138N/D201E/E176V/E187T/E204Q/E69G/I76V/K202T/L119W/R155S/R180L/S121T/S35A/S48A/V127L/V306I/V36M/Y140L)
HLA-B*3501 = HLA-B*3501 (Homo sapiens, UniProt P01889, A329T/A93T/A95T/C349S/D201E/D98Y/E176V/E187L/E204Q/E69T/I218V/K202T/L119I/Q94N/R155S/R180L/S121R/S35A/S48A/T118I/V127L/V306I/V36M/Y140S/Y91F)
HLA-B*5101 = HLA-B*5101 (Homo sapiens, UniProt P01889, A329T/A93T/A95T/C349S/D138N/D201E/D98Y/E187L/E204Q/E69T/G107R/I218V/K202T/L105A/L119W/N104I/Q94N/R106L/R155S/R180L/S101N/S121T/S35A/S48A/V306I/V36M/Y195H/Y91F)
HLA-B*5301 = HLA-B*5301 (Homo sapiens, UniProt P01889, A329T/A93T/A95T/C349S/D201E/D98Y/E176V/E187L/E204Q/E69T/G107R/I218V/K202T/L105A/L119I/N104I/Q94N/R106L/R155S/R180L/S101N/S121R/S35A/S48A/T118I/V127L/V306I/V36M/Y140S/Y91F)
HLA-B*0702 = HLA-B*0702 (Homo sapiens, UniProt P01889)

For LPRRSGAAGA [NP.172], the IC50 (HLA-B*5401) was 0.047 µM, the IC50 (HLA-B*3501) was > 10 µM and the IC50 (HLA-B*5101) was > 10 µM. The IC50 (HLA-B*5301) was > 10 µM and the IC50 (HLA-B*0702) was 0.002 µM.
